Where no end group is shown, it is not given here.
Tests used:
[1] = molecular target: T1, Tom70:Orf9bHelix complex (Homo sapiens, UniProt O94826); experiment: biochemical; assay type: binding, human Tom70; SARS-CoV-2 Orf9b
T1 construct: human Tom70 (residues 108–608); Avi tag (N, cleaved yes); His6 tag (N, cleaved yes); (GGS)5 linker and TEV cleavage site (N, cleaved yes); host or cells: E. coli BL21 (DE3) for Tom70; synthetic peptide

[2] = molecular target: T2, human Tom70 (residues 108–608) (Homo sapiens, UniProt O94826); experiment: ITC, Hsp90EEVD peptide binding to free Tom70; details: 20°C, pH 8, 150 mM NaCl, 2 mM TCEP, 10% glycerol, Hsp90EEVD (400–500 μM) into Tom70 (30 μM), mean ± SD of 3 measurements, read-out: KD of Hsp90EEVD to Tom70 alone
T2 construct: human Tom70 (residues 108–608); Avi tag (N, cleaved yes); His6 tag (N, cleaved yes); (GGS)5 linker and TEV cleavage site (N, cleaved yes); made in house; host or cells: E. coli BL21 (DE3)
T2 sequence (O94826 108-608): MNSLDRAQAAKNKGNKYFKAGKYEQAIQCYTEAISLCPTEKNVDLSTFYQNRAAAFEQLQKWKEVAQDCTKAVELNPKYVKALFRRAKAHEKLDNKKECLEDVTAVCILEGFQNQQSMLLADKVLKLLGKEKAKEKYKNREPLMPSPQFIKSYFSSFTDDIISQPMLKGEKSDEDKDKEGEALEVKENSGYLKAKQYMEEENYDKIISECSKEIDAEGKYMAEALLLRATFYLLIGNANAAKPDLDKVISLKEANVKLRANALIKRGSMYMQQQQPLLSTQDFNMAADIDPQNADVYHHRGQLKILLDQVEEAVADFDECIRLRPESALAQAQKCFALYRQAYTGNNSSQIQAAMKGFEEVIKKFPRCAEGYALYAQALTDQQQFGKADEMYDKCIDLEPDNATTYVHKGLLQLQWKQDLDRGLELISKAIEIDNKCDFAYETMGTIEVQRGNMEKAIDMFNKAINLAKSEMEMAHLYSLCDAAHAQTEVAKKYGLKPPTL
Method: (§1) All ITC experiments were recorded at 20°C using a Microcal-PEAQ-ITC calorimeter (Malvern Panalytical). Experiments involving full-length Hsp90 or the Hsp90EEVD peptide were carried out in buffer containing 20 mM sodium phosphate (pH 8), 150 mM NaCl, 2 mM TCEP, and 10% glycerol. 10% glycerol was required to prevent precipitation of Hsp90 during titration.
(§2) Unbound Orf9bHelix was removed via multiple rounds of concentration and buffer exchange on a concentrator (Vivaspin 20, Satorius). Orf9b truncation mutant complexes were produced in the same way. Experiments involving the binding of Orf9bHelix titrated into Tom70 were carried out in buffer containing 20 mM sodium phosphate (pH 7), 100 mM NaCl, and 2 mM TCEP. Orf9bHelix (120 μM) was titrated into 15 μM Tom70 or Tom70:Hsp90EEVD complex (15 μM Tom70: 400 μM Hsp90EEVD).
(§3) All data was fit using a 1:1 binding model to obtain the reported thermodynamic parameters using the software provided by the instrument. Reported parameters are the average and standard deviation of individual runs of the experiment, as outlined in supplementary information (Figs S3 and S9).

[3] = molecular target: Tom70:Orf9b complex; design: species or system human Tom70; SARS-CoV-2 Orf9b; details: read-out: binding affinity (KD) of full-length Hsp90 to Tom70:Orf9b complex; pH 8
[4] = test system: Tom70:Orf9b complex; assay type: binding, human Tom70; SARS-CoV-2 Orf9b
[5] = test system: Tom70; experiment: BLI kinetics, Hsp90 with free Tom70; assay type: binding, human
Method: We therefore indirectly estimated kon values by combining koff values obtained from BLI with KD values determined by ITC, i.e., kon=koffBLI/KDITC .
Biotinylated Hsp90 proteins were immobilized onto streptavidin biosensor probes, and experiments were conducted in buffer containing 20 mM sodium phosphate (pH 7), 150 mM NaCl, 1% BSA, 0.6 M sucrose, and 1 mM TCEP[68]. […] To combat heterogenous binding, dissociation curves were fit with a two-phase exponential curve. Due to the association rate (kon) being too rapid to quantify, kon values were indirectly estimated by combining koff values obtained from BLI with KD values determined by ITC ( kon=koffBLI/KDITC ). All data are corrected for non-specific binding. Error is given as the standard deviation of at least two measurements.

[6] = molecular target: T2, human Tom70 (residues 108–608); experiment: ITC, Hsp90 binding to free Tom70
Method: as §1, §2, §3

[7] = molecular target: T1, Tom70:Orf9bHelix complex; assay type: binding, human Tom70; SARS-CoV-2 Orf9b; details: pH 8

T1 sequence (P0DTD2 44-77 partner limits assumed, one chain of several): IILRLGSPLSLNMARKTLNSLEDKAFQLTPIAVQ

| Substance | Kd [1] | Kd [2] | Kd [3] | kon for Hsp90 binding to Tom70 in presence of bound full-length Orf9b [4] | association rate of Hsp90 to free Tom70 (BLI, direct) ([5]; BLI, 25°C, pH 7, 150 mM NaCl, 1% BSA, 0.6 M sucrose, 1 mM TCEP, Hsp90 immobilized) | kon for Hsp90 binding to free Tom70 ([5]; indirectly estimated, kon = koff(BLI)/KD(ITC), BLI 25°C pH 7, ITC 20°C pH 8, SD of at least two measurements) | Kd ([6]; 20°C, 20 mM sodium phosphate pH 8, 150 mM NaCl, 2 mM TCEP, 10% glycerol, Tom70 (400 μM) into Hsp90 (20 μM), 1:1 model, mean ± SD of 3 measurements, read-out: binding affinity (KD) of full-length Hsp90 to free Tom70) | thermodynamic signature of binding to free Tom70 ([6]; 20°C, pH 8, Fig 5C) | affinity of full-length Hsp90 to free Tom70 relative to Hsp90EEVD peptide ([6]; higher affinity than the Hsp90EEVD peptide) | thermodynamic signature of binding to Tom70-Orf9bHelix complex [7] |
| --- | --- | --- | --- | --- | --- | --- | --- | --- | --- | --- |
| YDTSRMEEVD [Hsp90EEVD] | 12 ± 1 µM | 12 ± 1 µM |  |  |  |  |  |  |  |  |
| Hsp90: human Hsp90α (residues 1–732), expressed in E. coli |  |  | 22 ± 1 µM | 20000 ± 10000 M⁻¹ s⁻¹ | too rapid to quantify accurately | 500000 ± 200000 M⁻¹ s⁻¹ | 3 ± 1 µM | a favorable entropy change was the major driving force | 4 fold | driven entirely by a favorable enthalpy change |

— article doi:10.1101/2025.11.18.689095 (bioRxiv, 2025)
